Results as given in patent publication US20250163104A1, “MACROCYCLIC IMMUNOMODULATORS” (priority 2021, published 2025).
Where a SMILES comes first, the peptide text is derived from it. Bridges are numbered along the chain shown (N, C = ends). [ ]: non-standard residue; d: D form. Bip = N[C@@H](Cc1ccc(-c2ccccc2)cc1)C(=O)O; Cha = N[C@@H](CC1CCCCC1)C(=O)O; Cit = NC(=O)NCCC[C@H](N)C(=O)O; dNle = CCCC[C@@H](N)C(=O)O; Orn = NCCC[C@H](N)C(=O)O; Dab = NCC[C@H](N)C(=O)O

Target: T1, human PD-1 / PD-L1-Ig binding on Jurkat cell line over-expressing human PD-1 (Jurkat-PD-1) (Homo sapiens, UniProt Q15116)
T1 construct: expressed in transfected cells; host or cells: Jurkat
Experiment: Jurkat-PD-1 Cell Binding High-Content Screening Assay (CBA)
Assay type: cell-based
Conditions: Jurkat-PD-1 cells, PE-labeled PD-L1-Ig 20 nM final; read-out: Jurkat HPD1_PDL1 IC50
Outline: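 Compounds were preincubated with Jurkat-hPD-1 cells in DMEM plus 10% fetal calf serum for 2 h at 37° C. Phycoerythrin-labeled PD-L1-Ig (20 nM final) was then added for 1 hour. Cells were fixed in 4% paraformaldehyde with Hoechst 33342, and bound fluorescence was quantified by high-content imaging.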

T1 sequence (Q15116 25-288): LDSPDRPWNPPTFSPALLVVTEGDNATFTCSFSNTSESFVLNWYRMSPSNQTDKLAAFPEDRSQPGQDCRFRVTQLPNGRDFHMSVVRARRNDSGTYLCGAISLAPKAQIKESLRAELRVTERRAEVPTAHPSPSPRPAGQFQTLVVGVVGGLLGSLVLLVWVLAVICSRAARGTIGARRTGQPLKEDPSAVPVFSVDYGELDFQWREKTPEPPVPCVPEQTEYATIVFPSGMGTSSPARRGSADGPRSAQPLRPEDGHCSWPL

| IC50 [µM] | Compound |
| --- | --- |
| 0.027 | CC(C)C[C@H]1NC(=O)[C@H](CCCN)NC(=O)[C@H](C(C)C)NC(=O)[C@H](Cc2ccc(-c3ccccc3)cc2)NC(=O)[C@H](C(C)C)NC(=O)[C@H](Cc2c[nH]c3ccccc23)NC(=O)[C@H](CC(=O)O)NC(=O)[C@H](Cc2ccc(C(=O)O)cc2)NC(=O)[C@H](Cc2ccncc2)NC(=O)CSC[C@@H](C(=O)N[C@@H](C)C(N)=O)NC(=O)[C@H]([C@@H](C)O)NC(=O)[C@H](C(C)C)NC(=O)[C@H](CC2CCCCC2)NC(=O)[C@H](CCN)NC1=O [Compound 1689] |
| 0.0107 | CCCC[C@H]1NC(=O)[C@H](CCCN)NC(=O)[C@H](C(C)C)NC(=O)[C@H](Cc2ccc(-c3ccccc3)cc2)NC(=O)[C@H](C(C)C)NC(=O)[C@H](Cc2c[nH]c3ccccc23)NC(=O)[C@H](CC(=O)O)NC(=O)[C@H](Cc2ccc(OCC(=O)O)cc2)NC(=O)[C@H](CN)NC(=O)CSC[C@@H](C(=O)N[C@@H](C)C(N)=O)NC(=O)[C@H]([C@@H](C)O)NC(=O)[C@H](C(C)C)NC(=O)[C@H](CC2CCCCC2)NC(=O)[C@H](CCN)NC1=O [Compound 1692] |
| 0.0091 | CCCC[C@H]1NC(=O)[C@H](CCCN)NC(=O)[C@H](C(C)C)NC(=O)[C@H](Cc2ccc(-c3ccccc3)cc2)NC(=O)[C@H](C(C)C)NC(=O)[C@H](Cc2c[nH]c3ccccc23)NC(=O)[C@H](CC(=O)O)NC(=O)[C@H](Cc2ccc(OCC(=O)O)cc2)NC(=O)[C@H](Cc2ccncc2)NC(=O)CSC[C@@H](C(=O)N[C@@H](C)C(N)=O)NC(=O)[C@H]([C@@H](C)O)NC(=O)[C@H](C(C)C)NC(=O)[C@H](CC2CCCCC2)NC(=O)[C@H](CCN)NC1=O [Compound 1693] |
| 0.0345 | CCCC[C@H]1NC(=O)[C@H](CCCN)NC(=O)[C@H](C(C)C)NC(=O)[C@H](Cc2ccc(-c3ccccc3)cc2)NC(=O)[C@H](C(C)C)NC(=O)[C@H](Cc2c[nH]c3ccccc23)NC(=O)[C@H](CC(=O)O)NC(=O)[C@H](Cc2ccncc2)NC(=O)[C@H](Cc2ccc(OCC(=O)O)cc2)NC(=O)CSC[C@@H](C(=O)N[C@@H](C)C(N)=O)NC(=O)[C@H]([C@@H](C)O)NC(=O)[C@H](C(C)C)NC(=O)[C@H](CC2CCCCC2)NC(=O)[C@H](CCN)NC1=O [Compound 1694] |
| 0.0344 | CCCC[C@H]1NC(=O)[C@H](CCCN)NC(=O)[C@H](C(C)C)NC(=O)[C@H](Cc2ccc(-c3ccccc3)cc2)NC(=O)[C@H](C(C)C)NC(=O)[C@H](Cc2c[nH]c3ccccc23)NC(=O)[C@H](CC(=O)O)NC(=O)[C@H](Cc2ccncc2)NC(=O)[C@H](CN)NC(=O)CSC[C@@H](C(=O)N[C@@H](C)C(N)=O)NC(=O)[C@H]([C@@H](C)O)NC(=O)[C@H](C(C)C)NC(=O)[C@H](CC2CCCCC2)NC(=O)[C@H](CCN)NC1=O [Compound 1695] |
| 0.0187 | CCCC[C@H]1NC(=O)[C@H](CCCN)NC(=O)[C@H](C(C)C)NC(=O)[C@H](Cc2ccc(-c3ccccc3)cc2)NC(=O)[C@H](C(C)C)NC(=O)[C@H](Cc2c[nH]c3ccccc23)NC(=O)[C@H](CC(=O)O)NC(=O)[C@H](Cc2ccc(O)cc2)NC(=O)[C@H](CC(N)=O)NC(=O)CSC[C@@H](C(=O)N[C@@H](C)C(N)=O)NC(=O)[C@H]([C@@H](C)O)NC(=O)[C@H](C(C)C)NC(=O)[C@H](CC2CCCCC2)NC(=O)[C@H](CCN)NC1=O [Compound 1696] ({CH2CO}-NYDWV[Bip]V[Orn][dNle][Dab][Cha]VTCA-NH2; thioether N-14) |
| 0.0251 | CCCC[C@H]1NC(=O)[C@H](CCCN)NC(=O)[C@H](CCCNC(N)=O)NC(=O)[C@H](Cc2ccc(-c3ccccc3)cc2)NC(=O)[C@H](C(C)C)NC(=O)[C@H](Cc2c[nH]c3ccccc23)NC(=O)[C@H](CC(=O)O)NC(=O)[C@H](Cc2ccncc2)NC(=O)[C@H](CN)NC(=O)CSC[C@@H](C(=O)N[C@@H](C)C(N)=O)NC(=O)[C@H]([C@@H](C)O)NC(=O)[C@H](C(C)C)NC(=O)[C@H](CC2CCCCC2)NC(=O)[C@H](CCN)NC1=O [Compound 1703] |
| 0.0143 | CCCC[C@H]1NC(=O)[C@H](CCCN)NC(=O)[C@H]([C@@H](C)CC)NC(=O)[C@H](Cc2ccc(-c3ccccc3)cc2)NC(=O)[C@H](C(C)C)NC(=O)[C@H](Cc2c[nH]c3ccccc23)NC(=O)[C@H](CC(=O)O)NC(=O)[C@H](Cc2ccc(C(=O)O)cc2)NC(=O)[C@H](Cc2ccncc2)NC(=O)CSC[C@@H](C(=O)N[C@@H](C)C(N)=O)NC(=O)[C@H]([C@@H](C)O)NC(=O)[C@H](C(C)C)NC(=O)[C@H](CC2CCCCC2)NC(=O)[C@H](CCN)NC1=O [Compound 1705] |
| 0.023 | CCCC[C@H]1NC(=O)[C@H](CCCN)NC(=O)[C@H]([C@@H](C)CC)NC(=O)[C@H](Cc2ccc(-c3ccccc3)cc2)NC(=O)[C@H](C(C)C)NC(=O)[C@H](Cc2c[nH]c3ccccc23)NC(=O)[C@H](CC(=O)O)NC(=O)[C@H](Cc2ccc(OCC(=O)O)cc2)NC(=O)[C@H](CN)NC(=O)CSC[C@@H](C(=O)N[C@@H](C)C(N)=O)NC(=O)[C@H]([C@@H](C)O)NC(=O)[C@H](C(C)C)NC(=O)[C@H](CC2CCCCC2)NC(=O)[C@H](CCN)NC1=O [Compound 1708] |

Second part, the compound before the results:

| Compound | IC50 [µM] |
| --- | --- |
| CC(C)C[C@H]1NC(=O)[C@H](CCCN)NC(=O)[C@H](C(C)C)NC(=O)[C@H](Cc2ccc(-c3ccccc3)cc2)NC(=O)[C@H](C(C)C)NC(=O)[C@H](Cc2c[nH]c3ccccc23)NC(=O)[C@H](CC(=O)O)NC(=O)[C@H](Cc2ccc(OCC(=O)O)cc2)NC(=O)[C@H](Cc2ccc(OCC(=O)O)cc2)NC(=O)CSC[C@@H](C(=O)N[C@@H](C)C(N)=O)NC(=O)[C@H]([C@@H](C)O)NC(=O)[C@H](C(C)C)NC(=O)[C@H](CC2CCCCC2)NC(=O)[C@H](CCN)NC1=O [Compound 1690] | 0.0124 |
| CC(C)C[C@H]1NC(=O)[C@H](CCCN)NC(=O)[C@H](C(C)C)NC(=O)[C@H](Cc2ccc(-c3ccccc3)cc2)NC(=O)[C@H](C(C)C)NC(=O)[C@H](Cc2c[nH]c3ccccc23)NC(=O)[C@H](CC(=O)O)NC(=O)[C@H](Cc2ccc(C(=O)O)cc2)NC(=O)[C@H](Cc2ccc(OCC(=O)O)cc2)NC(=O)CSC[C@@H](C(=O)N[C@@H](C)C(N)=O)NC(=O)[C@H]([C@@H](C)O)NC(=O)[C@H](C(C)C)NC(=O)[C@H](CC2CCCCC2)NC(=O)[C@H](CCN)NC1=O [Compound 1691] | 0.0328 |
| CCCC[C@H]1NC(=O)[C@H](CCCN)NC(=O)[C@H](CCCNC(N)=O)NC(=O)[C@H](Cc2ccc(-c3ccccc3)cc2)NC(=O)[C@H](C(C)C)NC(=O)[C@H](Cc2c[nH]c3ccccc23)NC(=O)[C@H](CC(=O)O)NC(=O)[C@H](Cc2ccc(OCC(=O)O)cc2)NC(=O)[C@H](Cc2ccc(OCC(=O)O)cc2)NC(=O)CSC[C@@H](C(=O)N[C@@H](C)C(N)=O)NC(=O)[C@H]([C@@H](C)O)NC(=O)[C@H](C(C)C)NC(=O)[C@H](CC2CCCCC2)NC(=O)[C@H](CCN)NC1=O [Compound 1698] | 0.0323 |
| CCCC[C@H]1NC(=O)[C@H](CCCN)NC(=O)[C@H](CCCNC(N)=O)NC(=O)[C@H](Cc2ccc(-c3ccccc3)cc2)NC(=O)[C@H](C(C)C)NC(=O)[C@H](Cc2c[nH]c3ccccc23)NC(=O)[C@H](CC(=O)O)NC(=O)[C@H](Cc2ccc(OCC(=O)O)cc2)NC(=O)[C@H](CN)NC(=O)CSC[C@@H](C(=O)N[C@@H](C)C(N)=O)NC(=O)[C@H]([C@@H](C)O)NC(=O)[C@H](C(C)C)NC(=O)[C@H](CC2CCCCC2)NC(=O)[C@H](CCN)NC1=O [Compound 1700] | 0.0214 |
| CCCC[C@H]1NC(=O)[C@H](CCCN)NC(=O)[C@H](CCCNC(N)=O)NC(=O)[C@H](Cc2ccc(-c3ccccc3)cc2)NC(=O)[C@H](C(C)C)NC(=O)[C@H](Cc2c[nH]c3ccccc23)NC(=O)[C@H](CC(=O)O)NC(=O)[C@H](Cc2ccc(OCC(=O)O)cc2)NC(=O)[C@H](Cc2ccncc2)NC(=O)CSC[C@@H](C(=O)N[C@@H](C)C(N)=O)NC(=O)[C@H]([C@@H](C)O)NC(=O)[C@H](C(C)C)NC(=O)[C@H](CC2CCCCC2)NC(=O)[C@H](CCN)NC1=O [Compound 1701] | 0.0245 |
| CCCC[C@H]1NC(=O)[C@H](CCCN)NC(=O)[C@H](CCCNC(N)=O)NC(=O)[C@H](Cc2ccc(-c3ccccc3)cc2)NC(=O)[C@H](C(C)C)NC(=O)[C@H](Cc2c[nH]c3ccccc23)NC(=O)[C@H](CC(=O)O)NC(=O)[C@H](Cc2ccncc2)NC(=O)[C@H](Cc2ccc(OCC(=O)O)cc2)NC(=O)CSC[C@@H](C(=O)N[C@@H](C)C(N)=O)NC(=O)[C@H]([C@@H](C)O)NC(=O)[C@H](C(C)C)NC(=O)[C@H](CC2CCCCC2)NC(=O)[C@H](CCN)NC1=O [Compound 1702] | 0.017 |
| CCCC[C@H]1NC(=O)[C@H](CCCN)NC(=O)[C@H](CCCNC(N)=O)NC(=O)[C@H](Cc2ccc(-c3ccccc3)cc2)NC(=O)[C@H](C(C)C)NC(=O)[C@H](Cc2c[nH]c3ccccc23)NC(=O)[C@H](CC(=O)O)NC(=O)[C@H](Cc2ccc(O)cc2)NC(=O)[C@H](CC(N)=O)NC(=O)CSC[C@@H](C(=O)N[C@@H](C)C(N)=O)NC(=O)[C@H]([C@@H](C)O)NC(=O)[C@H](C(C)C)NC(=O)[C@H](CC2CCCCC2)NC(=O)[C@H](CCN)NC1=O [Compound 1704] ({CH2CO}-NYDWV[Bip][Cit][Orn][dNle][Dab][Cha]VTCA-NH2; thioether N-14) | 0.0358 |
| CCCC[C@H]1NC(=O)[C@H](CCCN)NC(=O)[C@H]([C@@H](C)CC)NC(=O)[C@H](Cc2ccc(-c3ccccc3)cc2)NC(=O)[C@H](C(C)C)NC(=O)[C@H](Cc2c[nH]c3ccccc23)NC(=O)[C@H](CC(=O)O)NC(=O)[C@H](Cc2ccc(OCC(=O)O)cc2)NC(=O)[C@H](Cc2ccc(OCC(=O)O)cc2)NC(=O)CSC[C@@H](C(=O)N[C@@H](C)C(N)=O)NC(=O)[C@H]([C@@H](C)O)NC(=O)[C@H](C(C)C)NC(=O)[C@H](CC2CCCCC2)NC(=O)[C@H](CCN)NC1=O [Compound 1706] | 0.0115 |
| CCCC[C@H]1NC(=O)[C@H](CCCN)NC(=O)[C@H]([C@@H](C)CC)NC(=O)[C@H](Cc2ccc(-c3ccccc3)cc2)NC(=O)[C@H](C(C)C)NC(=O)[C@H](Cc2c[nH]c3ccccc23)NC(=O)[C@H](CC(=O)O)NC(=O)[C@H](Cc2ccc(C(=O)O)cc2)NC(=O)[C@H](Cc2ccc(OCC(=O)O)cc2)NC(=O)CSC[C@@H](C(=O)N[C@@H](C)C(N)=O)NC(=O)[C@H]([C@@H](C)O)NC(=O)[C@H](C(C)C)NC(=O)[C@H](CC2CCCCC2)NC(=O)[C@H](CCN)NC1=O [Compound 1707] | 0.0186 |
